According to article PMC5893132, “Selective inhibition of histamine-evoked Ca^2+ signals by compartmentalized cAMP in human bronchial airway smooth muscle cells” (Cell Calcium, 2018):
Where a name gives a salt, the structure may show the parent alone.

Tested on: histamine-evoked Ca^2+ signals in hBASMCs
Test: Histamine-evoked Ca2+ signals in populations of fluo-4-loaded hBASMCs
Format: cell-based, human
Details: HBSS
Procedure: Two methods were used to measure [Ca^2+]i in populations of hBASMCs. For measurements using a FlexStation III plate-reader (Molecular Devices, Sunnyvale, CA, USA), hBASMCs were seeded into 96-well plates (10^4 cells per well). After about 4 days, when the cells were confluent, the medium was replaced with SMGM-2 without serum or growth factor supplements, and the cells were used after a further 24 h. This period in serum-free medium increased by about 2-fold the amplitude of the increases in [Ca^2+]i evoked by histamine (results not shown). Cells were washed with HEPES-buffered saline (HBS: 135 mM NaCl, 5.9 mM KCl, 1.2 mM MgCl2, 1.5 mM CaCl2, 11.6 mM HEPES, 11.5 mM D-glucose, pH 7.3), and loaded with fluo-4 by incubation with fluo-4-AM (2 μM) in HBS (100 μL per well) containing pluronic F127 (0.02%, v/v) and probenecid (2.5 mM). After 1 h at 20 °C, the medium was replaced with HBS (100 μL per well) containing probenecid (2.5 mM). After a further incubation at 20 °C for 1 h, the medium was replaced with HBS (60–80 μL per well) or nominally Ca^2+-free HBS, and the cells were used immediately for experiments at 20 °C. In some experiments, BAPTA (2.5 mM) was added to HBS during the recording; this reduced the free [Ca^2+] of the HBS to ∼120 nM without affecting the pH. Drug additions (20 μL at 4 or 5 times the final concentration) were added automatically. Fluorescence from fluo-4 (excitation 485 nm, emission 525 nm) was recorded at 1.44-s intervals using Softmax Pro 5.4 (Molecular Devices). Fluorescence was calibrated to [Ca^2+]i from: [Ca^2+]i=KDCa×(F−Fmin/Fmax−F) where, KDCa is the equilibrium dissociation constant of fluo-4 for Ca^2+ (345 nM), F is the recorded fluorescence, and Fmin and Fmax are the fluorescence values recorded after addition of triton-X-100 (0.1%, v/v) with either BAPTA (10 mM, Fmin) or CaCl2 (10 mM, Fmax). Although treatment with triton-X-100 releases fluo-4 from cells into the medium, the fluo-4 fluorescence is captured with the same efficiency whether it is trapped within cells or dispersed within the small volume of the wells (unpublished observations). Fmax was determined for each well at the end of an experiment, and the average value was used for each column of 8 wells. Fmin was determined from parallel wells on each plate.
For measurements of [Ca^2+]i using an FDSS 7000 FLIPR (Hamamatsu), hBASMCs were seeded into 384-well plates (8000 cells per well) in 20 μL of SMGM-2 containing 5% serum. After 24 h, the medium was replaced with 15 μL of serum-free SMGM-2, and after a further 6 h the cells were loaded with Ca^2+ indicator by addition of FLIPR calcium 4 assay kit (Molecular Devices) supplemented with probenecid (2.5 mM). The exact composition of this ‘no-wash’ indicator kit is not disclosed by the manufacturer, but it contains fluo-4-AM and components that reduce background fluorescence. The manufacture’s stock solution was diluted 10-fold into HBSS containing BSA (0.1%, w/v) and HEPES (20 mM); 5 μL of this solution was then added to each well (containing 15 μL of serum-free SMGM-2). After 2 h at 37 °C in humidified air containing 5% CO2, the plate was used for experiments at 20 °C. Most additions (5 μL) were prepared in HBSS supplemented with HEPES (20 mM) and BSA (0.1%, w/v). For more prolonged incubations, drugs were diluted in the initial loading medium (to avoid changes in dye-loading during the ‘no wash’ protocol). Fluorescence signals (excitation at 480 nm, emission at 540 nm) were calibrated to [Ca^2+]i after measurement of Fmin and Fmax uniquely for each well, using a KDCa = 345 nM.
All concentration-effect relationships were determined by addition of different drug concentrations to individual wells in the same multi-well plate, rather than by sequential additions to the same well. […]

CC(C)NC[C@H](O)c1ccc(O)c(O)c1 [isoproterenol, (−)-isoproterenol hydrochloride]
IC50 (Homo sapiens, added 5 min before histamine 10 μM, n = 4, read-out: pIC50 for inhibition of histamine-evoked Ca2+ signals (converted)): 8.13 nM | maximal amplitude of the peak increase in [Ca2+]i evoked by histamine after pre-treatment (after isoproterenol 10 μM, 5 min, n = 7, control 242 ± 15 nM): 168 ± 19 nM
